Numbered stars: 1 amine (or outer) side, 2 acyl side, 3 side chain; on linkers, the order of the positions; unused ones are H or OH. Bridge positions count the residues as written; N and C are the ends. Square brackets hold non-standard residues; d marks the D form. Peptide text beside a SMILES is read from it. * marks the point of attachment. TtdsdLys(DOTA)NH2 = NC(=O)[C@@H](CCCCNC(=O)CN1CCN(CC(=O)O)CCN(CC(=O)O)CCN(CC(=O)O)CC1)NC(=O)CCC(=O)NCCCOCCOCCOCCCN*; Acetyl(1-DOTA-4-piperidyl) = O=C(O)CN1CCN(CC(=O)O)CCN(CC(=O)N2CCC(CC(=O)*)CC2)CCN(CC(=O)O)CC1; X7 = O=C(O)CN1CCN(CC(=O)O)CCN(CC(=O)NC2CCN(CC(=O)*)CC2)CCN(CC(=O)O)CC1; DOTA = O=C(O)CN1CCN(CC(=O)O)CCN(CC(=O)*)CCN(CC(=O)O)CC1; Phe(4-Cl) = N[C@@H](Cc1ccc(Cl)cc1)C(=O)O; Arg(Me) = CNC(=N)NCCC[C@H](N)C(=O)O; Ethylenediamine = C(CN[*:2])N[*:1]; NMeF = CN[C@@H](Cc1ccccc1)C(=O)O; Cit = NC(=O)NCCC[C@H](N)C(=O)O; Tle = CC(C)(C)[C@H](N)C(=O)O; Propanoyl(3-OH) = O=C(CCO)*; Api = NC1(C(=O)O)CCNCC1; Aib = CC(C)(N)C(=O)O
Key:
[1] = biological target: T1, PSMA-expressing C4-2 cells (Homo sapiens, UniProt Q04609); assay: FACS binding assay (competition with 50 nM PSM-0183); details: FACS binding, PSMA-expressing C4-2 cells; pIC50 category; read-out: pIC50 [C4-2] CAT (converted)
T1 construct: PSMA-expressing C4-2 cells (ATCC, Cat. No. CRL-3314) were cultured in RPMI-1640; host or cells: C4-2 cells
T1 sequence (Q04609 whole entry): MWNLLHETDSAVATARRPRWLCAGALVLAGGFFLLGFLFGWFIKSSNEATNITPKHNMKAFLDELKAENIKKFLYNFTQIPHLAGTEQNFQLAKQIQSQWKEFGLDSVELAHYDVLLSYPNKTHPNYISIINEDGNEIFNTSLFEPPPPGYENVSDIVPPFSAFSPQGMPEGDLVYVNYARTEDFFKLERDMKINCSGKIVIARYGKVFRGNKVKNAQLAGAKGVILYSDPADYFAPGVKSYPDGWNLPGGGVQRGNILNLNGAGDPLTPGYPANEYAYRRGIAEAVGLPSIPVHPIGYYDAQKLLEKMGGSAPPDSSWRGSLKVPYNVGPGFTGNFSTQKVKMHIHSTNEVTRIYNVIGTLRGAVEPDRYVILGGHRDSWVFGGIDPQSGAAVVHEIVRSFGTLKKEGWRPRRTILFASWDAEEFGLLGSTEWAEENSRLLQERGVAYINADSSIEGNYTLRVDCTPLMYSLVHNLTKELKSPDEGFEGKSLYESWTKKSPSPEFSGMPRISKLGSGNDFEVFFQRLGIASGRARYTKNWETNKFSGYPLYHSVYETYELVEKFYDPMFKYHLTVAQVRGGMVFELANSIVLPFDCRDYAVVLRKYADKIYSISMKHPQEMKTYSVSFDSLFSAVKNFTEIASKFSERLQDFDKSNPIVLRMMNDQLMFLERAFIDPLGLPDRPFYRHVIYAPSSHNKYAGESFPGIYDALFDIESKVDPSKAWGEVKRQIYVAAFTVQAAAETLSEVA
Outline: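 C4-2 cells were incubated 1 h at 4 °C with 50 nM AF488-labelled peptide PSM-0183 plus increasing test compound concentrations, then washed twice in ice-cold buffer. Median fluorescence in the AF488 channel was read by flow cytometry. IC50/pIC50 was derived by 4PL fitting of MFI versus concentration.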

[2] = biological target: T2, Fc-fusion protein of human PSMA (hPSMA-Fc) (Homo sapiens, UniProt Q04609); assay: Surface plasmon resonance assay (Biacore T200, single cycle kinetic); assay type: binding; details: PSMA SPR assay, hPSMA-Fc, 25° C.; pKD category; read-out: pKD CAT (converted)
T2 construct: purchased Acro Biosystems PSA-H5264
T2 sequence (Q04609 44-750 limits assumed): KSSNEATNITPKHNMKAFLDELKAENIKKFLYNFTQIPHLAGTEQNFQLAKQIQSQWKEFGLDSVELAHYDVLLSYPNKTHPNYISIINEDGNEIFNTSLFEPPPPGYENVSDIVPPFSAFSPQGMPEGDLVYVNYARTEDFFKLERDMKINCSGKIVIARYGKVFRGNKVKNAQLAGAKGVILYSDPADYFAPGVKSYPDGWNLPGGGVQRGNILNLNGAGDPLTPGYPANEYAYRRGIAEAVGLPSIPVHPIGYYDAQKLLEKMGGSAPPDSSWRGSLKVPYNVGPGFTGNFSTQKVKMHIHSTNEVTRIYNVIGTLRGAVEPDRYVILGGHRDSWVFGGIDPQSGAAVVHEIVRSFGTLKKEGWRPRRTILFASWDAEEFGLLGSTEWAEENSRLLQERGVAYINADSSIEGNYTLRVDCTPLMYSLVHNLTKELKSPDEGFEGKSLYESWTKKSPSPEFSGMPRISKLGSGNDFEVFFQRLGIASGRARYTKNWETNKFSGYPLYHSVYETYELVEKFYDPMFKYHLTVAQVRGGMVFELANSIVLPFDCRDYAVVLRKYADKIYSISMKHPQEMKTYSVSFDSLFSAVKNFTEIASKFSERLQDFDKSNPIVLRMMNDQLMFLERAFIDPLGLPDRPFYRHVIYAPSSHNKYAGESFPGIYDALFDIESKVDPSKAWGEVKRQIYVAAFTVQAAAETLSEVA
Outline: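 hPSMA-Fc was captured (~1000 RU) on an Fc-binding-peptide CM5 chip, and compounds were run in single cycle kinetic mode at 25° C in HBST with 0.1% DMSO. Double-blank-corrected sensorgrams were fitted to a 1:1 Langmuir model to give KD, reported as pKD.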

Row | IC50 [1] [nM] | Kd [2] [nM] | SMILES
1 | < 200 | < 12.6 | CNC(=N)NCCC[C@@H]1NC(=O)[C@H](CCCCN)NC(=O)[C@@H](NC(=O)[C@H](Cc2ccc(Cl)cc2)NC(=O)C(C)(C)NC(C)=O)CSSC[C@@H](C(=O)N[C@H](C(=O)NCCNC(=O)CN2CCN(CC(=O)O)CCN(CC(=O)O)CCN(CC(=O)O)CC2)C(C)(C)C)NC(=O)[C@H](CC(N)=O)NC(=O)C(C)(C)NC1=O [PSM-0320, Ac-Aib-Pcf-[Cys-Lys-Arg(Me)-Aib-Asn-Cys]-Tle-en-DOTA] (Ac-[Aib][Phe(4-Cl)]CK[Arg(Me)][Aib]NC[Tle]-{Ethylenediamine-DOTA}; disulfide 3-8)
2 | < 200 | 12.6 to 126 | CC(=O)N[C@H](C(=O)NC(C)(C)C(=O)N[C@@H](Cc1ccc(Cl)cc1)C(=O)N[C@H]1CSSC[C@@H](C(=O)N[C@H](C(=O)N[C@H](C(=O)N[C@H](CCCCNC(=O)CC2CCN(C(=O)CN3CCN(CC(=O)O)CCN(CC(=O)O)CCN(CC(=O)O)CC3)CC2)C(N)=O)[C@@H](C)O)C(C)(C)C)NC(=O)[C@H](CC(N)=O)NC(=O)C(C)(C)NC(=O)[C@H](CCCNC(N)=O)NC(=O)[C@H](CCCCN)NC1=O)[C@@H](C)O [PSM-0322, Ac-Thr-Aib-Pcf-[Cys-Lys-Cit-Aib-Asn-Cys]-Tle-Thr-lys (DOTA-Cmp)-NH2] (Ac-T[Aib][Phe(4-Cl)]CK[Cit][Aib]NC[Tle]T[dK](Acetyl(1-DOTA-4-piperidyl))-NH2; disulfide 4-9)
3 | < 200 | < 12.6 | C[C@@H](O)[C@H](NC(=O)[C@@H](NC(=O)[C@@H]1CSSC[C@H](NC(=O)[C@H](Cc2ccc(Cl)cc2)NC(=O)C(C)(C)NC(=O)CCO)C(=O)N[C@@H](CCCCN)C(=O)N[C@@H](CCCNC(=N)N)C(=O)N[C@@H](CCCCNC(=O)CN2CCC(NC(=O)CN3CCN(CC(=O)O)CCN(CC(=O)O)CCN(CC(=O)O)CC3)CC2)C(=O)N[C@@H](CC(N)=O)C(=O)N1)C(C)(C)C)C(N)=O [PSM-0324, HPA-Aib-Pcf-[Cys-Lys-Arg-Lys(DOTA-APAc)-Asn-Cys]-Tle-Thr-NH2] ({Propanoyl(3-OH)}-[Aib][Phe(4-Cl)]CKRK(X7)NC[Tle]T-NH2; disulfide 3-8)

More lines, now with the values behind:

Row | SMILES | IC50 [1] [nM] | Kd [2] [nM]
4 | CC(=O)N[C@H](C(=O)NC(C)(C)C(=O)N[C@@H](Cc1ccc(Cl)cc1)C(=O)N[C@H]1CSSC[C@@H](C(=O)N[C@H](C(=O)N[C@H](C(=O)N[C@@H](CC(=O)O)C(N)=O)[C@@H](C)O)C(C)(C)C)NC(=O)[C@H](CC(N)=O)NC(=O)C(C)(C)NC(=O)[C@H](CCCNC(=N)N)NC(=O)[C@H](CCCCN)NC1=O)[C@@H](C)O [PSM-0318, Ac-Thr-Aib-Pcf-[Cys-Lys-Arg-Aib-Asn-Cys]-Tle-Thr-Asp-NH2] (Ac-T[Aib][Phe(4-Cl)]CKR[Aib]NC[Tle]TD-NH2; disulfide 4-9) | < 200 | < 12.6
5 | CC(=O)N[C@H](C(=O)N[C@@H](C)C(=O)N(C)[C@@H](Cc1ccccc1)C(=O)N[C@H]1CSSC[C@@H](C(=O)N[C@H](C(=O)N[C@H](C(N)=O)[C@@H](C)O)C(C)(C)C)NC(=O)[C@H](CC(N)=O)NC(=O)C(C)(C)NC(=O)[C@H](CCCNC(=N)N)NC(=O)[C@H](CCCCN)NC1=O)[C@@H](C)O [PSM-0319, Ac-Thr-Ala-Nmf-[Cys-Lys-Arg-Aib-Asn-Cys]-Tle-Thr-NH2] (Ac-TA[NMeF]CKR[Aib]NC[Tle]T-NH2; disulfide 4-9) | < 200 | 12.6 to 126
6 | CC(=O)N[C@H](C(=O)NC(C)(C)C(=O)N[C@@H](Cc1ccccc1)C(=O)N[C@H]1CSSC[C@@H](C(=O)N[C@H](C(=O)N[C@H](C(N)=O)[C@@H](C)O)C(C)(C)C)NC(=O)[C@H](CC(N)=O)NC(=O)C2(CCN(C(=O)CN3CCN(CC(=O)O)CCN(CC(=O)O)CCN(CC(=O)O)CC3)CC2)NC(=O)[C@H](CCCNC(=N)N)NC(=O)[C@H](CCCCN)NC1=O)[C@@H](C)O [PSM-0321, Ac-Thr-Aib-Phe-[Cys-Lys-Arg-Apc (DOTA)-Asn-Cys]-Tle-Thr-NH2] (Ac-T[Aib]FCKR[Api](DOTA)NC[Tle]T-NH2; disulfide 4-9) | < 200 | < 12.6
7 | CC(=O)N[C@@H](Cc1ccccc1)C(=O)N[C@H]1CSSC[C@@H](C(=O)N[C@@H](CC(C)C)C(=O)N[C@H](C(=O)N[C@@H](CC(=O)O)C(=O)NCCCOCCOCCOCCCNC(=O)CCC(=O)N[C@H](CCCCNC(=O)CN2CCN(CC(=O)O)CCN(CC(=O)O)CCN(CC(=O)O)CC2)C(N)=O)[C@@H](C)O)NC(=O)[C@H](CC(N)=O)NC(=O)[C@H](C)NC(=O)[C@H](CCCNC(=N)N)NC(=O)[C@H](CCCCN)NC1=O [PSM-0323, Ac-Phe-[Cys-Lys-Arg-Ala-Asn-Cys]-Lou-Thr-Asp-Ttds-lys(DOTA)-NH2] (Ac-FCKRANCLTD-{TtdsdLys(DOTA)NH2}; disulfide 2-7) | > 3160 | > 501

— patent US20260083865A1, “PROSTATE SPECIFIC MEMBRANE ANTIGEN (PSMA) LIGANDS AND USE THEREOF” (priority 2022, published 2026)
